The text below walks through data of ChEMBL document CHEMBL1128764, “Peptidyl aldehyde derivatives as potent and selective inhibitors of cathepsin L” (Bioorg Med Chem Lett, 1995).

Assay [1] addresses T1, Cathepsin B (Homo sapiens, UniProt P07858). The assay is described as follows: Ratio of Inhibitory activity against cathepsin B/cathepsin L.
Assay [2] addresses T2, Calpain-2 catalytic subunit (Homo sapiens, UniProt P17655).
T2 sequence (P17655 whole entry): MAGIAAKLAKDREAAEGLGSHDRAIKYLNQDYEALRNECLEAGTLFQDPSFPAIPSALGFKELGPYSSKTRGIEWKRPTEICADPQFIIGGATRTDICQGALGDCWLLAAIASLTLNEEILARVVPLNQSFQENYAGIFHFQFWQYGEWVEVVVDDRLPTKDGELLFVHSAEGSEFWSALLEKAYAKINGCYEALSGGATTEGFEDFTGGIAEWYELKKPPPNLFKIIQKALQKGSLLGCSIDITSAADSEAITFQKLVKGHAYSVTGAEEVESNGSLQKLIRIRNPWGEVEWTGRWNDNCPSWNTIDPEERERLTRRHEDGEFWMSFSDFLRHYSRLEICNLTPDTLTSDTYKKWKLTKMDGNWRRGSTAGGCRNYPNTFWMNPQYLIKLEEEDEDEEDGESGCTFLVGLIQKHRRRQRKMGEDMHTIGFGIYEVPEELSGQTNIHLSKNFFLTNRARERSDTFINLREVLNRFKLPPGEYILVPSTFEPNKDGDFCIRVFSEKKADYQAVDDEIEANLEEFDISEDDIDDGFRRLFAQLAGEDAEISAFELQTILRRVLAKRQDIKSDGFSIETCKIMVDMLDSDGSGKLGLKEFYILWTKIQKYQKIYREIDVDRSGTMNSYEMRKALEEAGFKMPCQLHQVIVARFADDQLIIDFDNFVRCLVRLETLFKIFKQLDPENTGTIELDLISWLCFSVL
As to the kind of experiment: Compound was tested for its inhibitory activity against calpain 2.

The nature of assay [3]: Compound was tested for its inhibitory activity against cathepsin L.
The target in assay [4] is T1, Cathepsin B. The assay is described as follows: Compound was tested for its inhibitory activity against cathepsin B.
Assay [5] deals with Chymotrypsinogen A (Bos taurus) (UniProt P00766). As to the kind of experiment: Compound was tested for its inhibitory activity against alpha-chymotrypsin at concentration less than 1000 ng/ml; no inhibition.
In assay [6] the target is T2, Calpain-2 catalytic subunit. As to the kind of experiment: Compound was tested for its inhibitory activity against Calpain 2.

Molecules are shown by their SMILES. pIC50: −log10 of the molar value. Calls of active or inactive are those of the source. The rule behind the calls is not given here. Where a SMILES comes first, the peptide text is derived from it. The star is where a group is joined. Cbz = O=C(OCc1ccccc1)*

The pIC50 is −log10 of the IC50, conventionally taken in molar units. Low values mean a high IC50, high ones a low IC50. As to `CCCCOc1ccc(C[C@H](NC(=O)[C@H](Cc2ccccc2)NC(=O)OCc2ccccc2)C(=O)O)cc1`, the Ratio on Cathepsin B [1] came out at 120. The pIC50 in assay [2] is 7.10; in assay [3] it was 8.16; on Cathepsin B [4] it was 6.08.
With `C[C@H](NC(=O)[C@H](Cc1ccccc1)NC(=O)OCc1ccccc1)C(=O)O`, the Ratio on Cathepsin B [1] is 2.91. In addition, the inhibition entry in assay [5] is “inactive”. Moreover, the results for the pIC50 (in assay [3]; against Cathepsin B [4]) were 7.81 and 7.35, respectively.
On the same counts, the results for `CC(C)C[C@H](NC(=O)[C@H](Cc1ccccc1)NC(=O)OCc1ccccc1)C(=O)O` (Cbz-Phe-Leu-OH) are 22.7, “inactive”, 9.11 and 7.75.
As for `O=C(N[C@@H](Cc1ccccc1)C(=O)N[C@@H](Cc1ccccc1)C(=O)O)OCc1ccccc1` (Cbz-Phe-Phe-OH), on Cathepsin B [1], the Ratio was found to be 94.2. Further, the pIC50 in assay [6] was 6.98; in assay [3], 9.13; against Cathepsin B [4] it was 7.16. The inhibition entry in assay [5] was “inactive”.
For the molecule `COc1ccc(C[C@H](NC(=O)[C@H](Cc2ccccc2)NC(=O)OCc2ccccc2)C(=O)O)cc1` (Cbz-Phe-Tyr(Me)-OH), the Ratio on Cathepsin B [1] worked out at 33.1. The pIC50 in assay [2] is 6.98; in assay [3], 8.53; on Cathepsin B [4], 7.01. In addition, in assay [5], the inhibition result is “inactive”.
On the same counts, the results for `O=C(N[C@@H](Cc1ccccc1)C(=O)N[C@@H](Cc1ccc(O)cc1)C(=O)O)OCc1ccccc1` (Cbz-Phe-Tyr-OH) are 100, 6.74, 9.07, 7.07 and “inactive”.
With `CC(=O)N[C@@H](CC(C)C)C(=O)N[C@@H](CC(C)C)C(=O)N[C@H](C=O)CCCNC(=N)N` [LEUPEPTIN], the Ratio on Cathepsin B [1] amounted to 1.66. Further, the inhibition entry in assay [5] is “inactive”. The pIC50 was 7.15 in assay [3] and 6.93 against Cathepsin B [4].
